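The compound was tested at five concentrations on cells cultured in 96-well plates, with a 48-hour exposure period. Here, GI50 denotes the concentration required for 50% inhibition of growth. TGI: concentration producing complete growth inhibition.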
What was measured:
Assay in all cases: NCI tumour cell line growth inhibition, 48 h
[1] = system: NCI-H460 lung
[2] = system: OVCAR-8 ovarian
[3] = system: PC-3 prostate
[4] = system: M14 melanoma
[5] = system: HCT-116 colon
[6] = system: DU-145 prostate
[7] = system: SK-MEL-28 melanoma
[8] = system: K-562 leukemia
[9] = system: 786-0 renal
[10] = system: U251 CNS
[11] = system: HCT-15 colon
[12] = system: IGROV1 ovarian
[13] = system: A549 NSCLC
[14] = system: NCI-H226 lung
[15] = system: RXF 393 renal
[16] = system: SF-295 CNS
[17] = system: SK-MEL-2 melanoma
[18] = system: BT-549 breast
[19] = system: NCI-H23 lung
[20] = system: UACC-257 melanoma
[21] = system: KM12 colon
[22] = system: UO-31 renal
[23] = system: HOP-62 NSCLC
[24] = system: MCF7 breast
[25] = system: HCC-2998 colon
[26] = system: SF-268 CNS
[27] = system: HT29 colon
[28] = system: OVCAR-4 ovarian
[29] = system: SR leukemia
[30] = system: SNB-19 CNS
[31] = system: SK-OV-3 ovarian
[32] = system: OVCAR-5 ovarian
[33] = system: UACC-62 melanoma
[34] = system: SF-539 CNS
[35] = system: HOP-92 NSCLC
[36] = system: NCI/ADR-RES ovarian
[37] = system: T-47D breast
[38] = system: RPMI-8226 leukemia
[39] = system: HS 578T breast
[40] = system: TK-10 renal
[41] = system: MALME-3M melanoma
[42] = system: A498 renal
[43] = system: CCRF-CEM leukemia
[44] = system: MDA-MB-231 breast
[45] = system: ACHN renal
[46] = system: MOLT-4 leukemia
[47] = system: SW-620 colon
[48] = system: EKVX NSCLC
[49] = system: NCI-H522 lung
[50] = system: SN12C renal
[51] = system: MDA-MB-435
[52] = system: HL-60(TB) leukemia
[53] = system: CAKI-1 renal
[54] = system: SK-MEL-5 melanoma
[55] = system: COLO 205 colon
[56] = system: LOX IMVI melanoma
[57] = system: SNB-75 CNS

## CC[C@]12CC(C(=O)OC)=C3Nc4ccccc4[C@@]34CCN(C14)[C@@H]1c3cc4c(cc3O[C@@H]1[C@H]2O)NC1=C(C(=O)OC)C[C@@]2(CC)C3N(CC[C@@]143)C[C@H]1O[C@H]12 (some centres not stated)
[1]
  GI50: 0.812 µM
  TGI: > 30.7 µM
[2]
  GI50: 0.48 µM
  TGI: > 50 µM
[3]
  GI50: 0.403 µM
  TGI: > 50 µM
[4]
  GI50: 0.423 µM
  TGI: > 20.6 µM
[5]
  GI50: 0.367 µM
  TGI: 2.84 µM
[6]
  GI50: 1.85 µM
  TGI: > 50 µM
[7]
  GI50: 0.974 µM
  TGI: > 50 µM
[8]
  GI50: 0.22 µM
  TGI: > 50 µM
[9]
  GI50: 0.274 µM
  TGI: > 50 µM
[10]
  GI50: 0.738 µM
  TGI: 4.72 µM
[11]
  GI50: 0.16 µM
  TGI: 6.4 µM
[12]
  GI50: 0.349 µM
  TGI: > 50 µM
[13]
  GI50: 0.51 µM
  TGI: > 44.4 µM
[14]
  GI50: 0.509 µM
  TGI: > 11.3 µM
[15]
  GI50: 0.483 µM
  TGI: 1.9 µM
[16]
  GI50: 0.317 µM
  TGI: > 50 µM
[17]
  GI50: 0.537 µM
  TGI: 5.04 µM
[18]
  GI50: 0.889 µM
  TGI: 8.26 µM
[19]
  GI50: 0.632 µM
  TGI: > 36.2 µM
[20]
  GI50: 0.363 µM
  TGI: 10.2 µM
[21]
  GI50: 0.636 µM
  TGI: > 50 µM
[22]
  GI50: 0.148 µM
  TGI: > 50 µM
[23]
  GI50: 0.201 µM
  TGI: > 50 µM
[24]
  GI50: 0.109 µM
  TGI: > 50 µM
[25]
  GI50: 0.492 µM
  TGI: 1.7 µM
[26]
  GI50: 1.27 µM
  TGI: > 50 µM
[27]
  GI50: 0.226 µM
  TGI: > 25.4 µM
[28]
  GI50: 0.548 µM
  TGI: > 50 µM
[29]
  GI50: 0.183 µM
  TGI: > 50 µM
[30]
  GI50: 0.443 µM
  TGI: > 50 µM
[31]
  GI50: 0.296 µM
[32]
  GI50: 0.614 µM
  TGI: > 50 µM
[33]
  GI50: 0.0895 µM
  TGI: 1.18 µM
[34]
  GI50: 0.417 µM
  TGI: > 50 µM
[35]
  GI50: 0.134 µM
  TGI: 2.07 µM
[36]
  GI50: 0.29 µM
  TGI: > 50 µM
[37]
  GI50: 0.616 µM
  TGI: > 50 µM
[38]
  GI50: 0.185 µM
  TGI: 1.44 µM
[39]
  GI50: 0.337 µM
  TGI: > 50 µM
[40]
  GI50: 0.13 µM
  TGI: 3.06 µM
[41]
  GI50: 0.504 µM
  TGI: 21 µM
[42]
  GI50: 0.193 µM
  TGI: 1.16 µM
[43]
  GI50: 0.59 µM
  TGI: > 50 µM
[44]
  GI50: 0.311 µM
  TGI: > 50 µM
[45]
  GI50: 0.32 µM
  TGI: 5.65 µM
[46]
  GI50: 0.912 µM
  TGI: > 50 µM
[47]
  GI50: 0.84 µM
  TGI: > 20.7 µM
[48]
  GI50: 0.6 µM
  TGI: > 50 µM
[49]
  GI50: 0.224 µM
  TGI: 2.93 µM
[50]
  GI50: 0.641 µM
  TGI: > 50 µM
[51]
  GI50: 0.37 µM
  TGI: 8.77 µM
[52]
  GI50: 0.0862 µM
  TGI: > 50 µM
[53]
  GI50: 0.122 µM
  TGI: > 20.4 µM
[54]
  GI50: 0.583 µM
  TGI: 1.32 µM
[55]
  GI50: 0.278 µM
  TGI: 1.01 µM
[56]
  GI50: 0.167 µM
  TGI: 0.721 µM
[57]
  GI50: 0.0972 µM
